Measured values from PMC10254649, “Design, Synthesis, and Biological Evaluation of Potent and Selective Inhibitors of Ataxia Telangiectasia Mutated and Rad3-Related (ATR) Kinase for the Efficient Treatment of Cancer” (Molecules, 2023).
Several values for one entry are separate records, joined by “and”; a condition that tells them apart may be missing. Equal entries are not always repeated. Where two headings read alike, the source gives them in different places.

What was measured:
[1] = biological target: ATR (Homo sapiens, UniProt Q13535); assay: In vitro inhibitory activity against the ATR enzyme; format: biochemical
[2] = test system: A549 cells; assay: CCK-8 cell proliferation assay, A549; format: cell-based; settings: Homo sapiens, CCK-8, 72 h, ATM-normal cell line, three independent experiments, read-out: IC50 ± SD, A549
Method: (§1) A549, HCT116, NCI-H23, and LoVo cells were purchased from the Cell Resources Center of Shanghai Academy of Life Sciences, Shanghai, China. A549 cells were cultured in McCoy’s5A medium supplemented with 10% FBS (KeyGEN Biotech, Nanjing, China) and 1% penicillin/streptomycin (Gibco, 15070-063). HCT116 cells were cultured in IMDM medium supplemented with 10% FBS (KeyGEN Biotech, Nanjing, China) and 1% penicillin/streptomycin (Gibco, 15070-063). NCI-H23 cells were cultured in RPMI 1640 medium supplemented with 10% FBS (KeyGEN Biotech, Nanjing, China) and 1% penicillin/streptomycin (Gibco, 15070-063). LoVo cells were cultured in F12K medium supplemented with 10% FBS (KeyGEN Biotech, Nanjing, China) and 1% penicillin/streptomycin (Gibco, 15070-063). All cells were cultured in an incubator at 37 °C under a 5% CO2 atmosphere.
(§2) For the assay, 3000/well cells were planted into 96-well plates for 24 h and then treated with the indicated doses of drugs or controls for 72 h. Following the manufacturer’s instructions, cell proliferation/survival was measured using the CCK-8 (KeyGEN Biotech, Nanjing, China) assay and plotted via GraphPad 8.0.

[3] = test system: HCT116 cells; assay: CCK-8 cell proliferation assay, HCT116; format: cell-based; settings: Homo sapiens, HCT-116; CCK-8, 72 h, ATM-normal cell line, three independent experiments; read-out: IC50 ± SD, HCT116
Method: as §1, §2

[4] = test system: NCI-H23 cells; assay: CCK-8 cell proliferation assay, NCI-H23; format: cell-based; settings: Homo sapiens, CCK-8, 72 h, ATM-deficient cell line, three independent experiments, read-out: IC50 ± SD, NCI-H23
Method: as §1, §2

[5] = test system: LoVo cells; assay: CCK-8 cell proliferation assay, LoVo; format: cell-based; settings: Homo sapiens, CCK-8, 72 h, ATM-deficient cell line, three independent experiments, read-out: IC50 ± SD, LoVo
Method: as §1, §2

[6] = test system: LoVo cells; assay: Annexin V-FITC/PI apoptosis assay by flow cytometry; format: cell-based, human; settings: 1 μM
Method: The percentage of apoptotic cells was determined by the Annexin V-FITC/PI double staining kit (KeyGEN Biotech, Nanjing, China). According to the manufacturer’s instructions, LoVo cells were stained with Annexin V-FITC and PI. The signal of the FITC and PI was recorded by BD FACSCelesta Flow Cytometer (BD FACSCelesta, Becton, Dickinson and Company) and the FlowJo software.

[7] = test system: LoVo xenografts; assay: LoVo tumor xenograft mouse model, antitumor efficacy and tolerability; format: in vivo; settings: for tumor growth inhibition (TGI): days 1-18, single agent
Method: Balb/c nude mice (18–22 g, female, 4 weeks old) were purchased from Hangzhou Medical College (Hangzhou, China). All mice were inoculated subcutaneously in the right flank with 5 × 10^6 LoVo cells to initiate tumor growth. When the mean tumor volume reached approximately 100 mm^3, all mice were randomly divided into 8 groups (n = 5 per group) based on body weight and volume. […] Cisplatin was administered twice a week at the indicated doses. Tumor size and animal weight were measured every 3 days. Tumor volume was calculated as tumor volume (cm^3) = (length × width^2)/2. Tumor inhibition rate (%) = (1 − mean tumor weight in the treatment group/mean tumor weight in the control group) × 100%. The results were obtained from 5 test mice (mean ± SD) and calculated using GraphPad 8.0 software.

[8] = test system: 207 kinases; assay: Kinase panel selectivity screen at 1 μM; format: biochemical, human; settings: single concentration of 1 μM, duplicate
[9] = test system: LoVo cells; assay: Colony formation assay; format: cell-based, human; settings: 14 days
From the text: LoVo cells at a concentration of 800 cells/well were exposed to various concentrations of ZH-12 for 14 days. After 14 days of treatment, the colonies were fixed with 4% paraformaldehyde, stained with 0.1% crystal violet, and imaged using an upright biological microscope (Olympus BX53, Tokyo, Japan). The experiments were repeated at least three times and plotted via GraphPad 8.0.

[10] = test system: LoVo cells; assay: Wound healing migration assay; format: cell-based, human; settings: 48 h
Method: LoVo cells in the logarithmic phase were collected and seeded in 6-well plates and cultured overnight. A straight line was drawn across the cell with a sterile pipette tip. A culture medium containing different concentrations of ZH-12 or 0.1% DMSO (10% FBS) was added. Scratch widths were recorded under an inverted microscope (Olympus, Waltham, MA, USA) at 0 h and 48 h.

[11] = test system: LoVo cells; assay: Comet assay for DNA damage; format: cell-based, human; settings: 72 h
Method: The comet assay was performed following the protocol of the manufacturer of the Comet Assay Kit (KeyGEN Biotech, Nanjing, China). […] After 3 days of treatment, the cells (1 × 10^4/mL) were collected, mixed with low-melting agarose at a ratio of 1:10 (v/v), layered on slides, lysed in lysis buffer at 4 °C for 2 h, and then lysed in alkaline lysis solution at room temperature for 30 min. Following electrophoresis, the cells were stained with PI and observed with an […] biomicroscope (Olympus BX53, Tokyo, Japan). Three images were randomly captured per slide.

[12] = test system: p-ATR(Thr1989) and p-CHK1(Ser345); assay: Western blot of ATR/CHK1 signaling in HU-treated LoVo cells; format: cell-based, human; settings: LoVo cells treated with HU (hydroxyurea)
Method: (§3) LoVo cells with a density of 1 × 10^6 were inoculated in a small cell culture dish at a single density for 24 h and then treated with the specified concentration of 5% dimethyl sulfoxide or compound at different times. The cells were washed with cold PBS and lysed with RIPA buffer (Beyotime, Shanghai, China) containing protease inhibitors (Beyotime, Shanghai, China) and phosphatase inhibitors (Beyotime, Shanghai, China). After lysis of the total cell solution on ice for 60 min, the lysate was centrifuged (12,000 rpm, 4 °C, 20 min); The total protein concentrations obtained were determined using the BCA kit (Beyotime, Shanghai, China). A proper 6 × loading buffer was added before use, and the samples were denatured by boiling. Then, 30–100 μg of protein was loaded onto a 4–12% SDS-PAGE gel and then transferred to the PVDF membrane (Millipore). The membrane was occluded for 1 h, incubated overnight with primary antibody at 4 °C, followed by washing 3 times with Tris-buffered saline and Tween 20 (TBST) for 10 min. After incubation with a second antibody with horseradish peroxidase for 60 min at room temperature, the membrane was washed 3 times for 10 min with TBST. Finally, blotting was performed with an enhanced chemiluminescence assay kit (KeyGEN Biotech, Nanjing, China). The software ImageJ was used to quantify the percentage degradation of proteins. […]

[13] = test system: p-ATR(Thr1989) and p-CHK1(Ser345); assay: Western blot of ATR/CHK1 signaling in LoVo xenograft tumors; format: in vivo, Balb/c nude mice; settings: LoVo xenograft tumors, 50, 25 and 12.5 mg/kg
Method: as §3, with “The membrane was occluded for 1 h, incubated overnight with primary antibody at 4 °C, followed by washing 3 times with Tris-buffered saline and Tween 20 (TBST) for 10 min. After incubation with a second antibody with horseradish peroxidase for 60 min at room temperature, the membrane was washed 3 times for 10 min with TBST. Finally, blotting was performed with an enhanced chemiluminescence assay kit (KeyGEN Biotech, Nanjing, China).” left out
Balb/c nude mice (18–22 g, female, 4 weeks old) were purchased from Hangzhou Medical College (Hangzhou, China). […] Tumor size and animal weight were measured every 3 days. Tumor volume was calculated as tumor volume (cm^3) = (length × width^2)/2. […] The results were obtained from 5 test mice (mean ± SD) and calculated using GraphPad 8.0 software.

Chain of ATR (Q13535 whole entry): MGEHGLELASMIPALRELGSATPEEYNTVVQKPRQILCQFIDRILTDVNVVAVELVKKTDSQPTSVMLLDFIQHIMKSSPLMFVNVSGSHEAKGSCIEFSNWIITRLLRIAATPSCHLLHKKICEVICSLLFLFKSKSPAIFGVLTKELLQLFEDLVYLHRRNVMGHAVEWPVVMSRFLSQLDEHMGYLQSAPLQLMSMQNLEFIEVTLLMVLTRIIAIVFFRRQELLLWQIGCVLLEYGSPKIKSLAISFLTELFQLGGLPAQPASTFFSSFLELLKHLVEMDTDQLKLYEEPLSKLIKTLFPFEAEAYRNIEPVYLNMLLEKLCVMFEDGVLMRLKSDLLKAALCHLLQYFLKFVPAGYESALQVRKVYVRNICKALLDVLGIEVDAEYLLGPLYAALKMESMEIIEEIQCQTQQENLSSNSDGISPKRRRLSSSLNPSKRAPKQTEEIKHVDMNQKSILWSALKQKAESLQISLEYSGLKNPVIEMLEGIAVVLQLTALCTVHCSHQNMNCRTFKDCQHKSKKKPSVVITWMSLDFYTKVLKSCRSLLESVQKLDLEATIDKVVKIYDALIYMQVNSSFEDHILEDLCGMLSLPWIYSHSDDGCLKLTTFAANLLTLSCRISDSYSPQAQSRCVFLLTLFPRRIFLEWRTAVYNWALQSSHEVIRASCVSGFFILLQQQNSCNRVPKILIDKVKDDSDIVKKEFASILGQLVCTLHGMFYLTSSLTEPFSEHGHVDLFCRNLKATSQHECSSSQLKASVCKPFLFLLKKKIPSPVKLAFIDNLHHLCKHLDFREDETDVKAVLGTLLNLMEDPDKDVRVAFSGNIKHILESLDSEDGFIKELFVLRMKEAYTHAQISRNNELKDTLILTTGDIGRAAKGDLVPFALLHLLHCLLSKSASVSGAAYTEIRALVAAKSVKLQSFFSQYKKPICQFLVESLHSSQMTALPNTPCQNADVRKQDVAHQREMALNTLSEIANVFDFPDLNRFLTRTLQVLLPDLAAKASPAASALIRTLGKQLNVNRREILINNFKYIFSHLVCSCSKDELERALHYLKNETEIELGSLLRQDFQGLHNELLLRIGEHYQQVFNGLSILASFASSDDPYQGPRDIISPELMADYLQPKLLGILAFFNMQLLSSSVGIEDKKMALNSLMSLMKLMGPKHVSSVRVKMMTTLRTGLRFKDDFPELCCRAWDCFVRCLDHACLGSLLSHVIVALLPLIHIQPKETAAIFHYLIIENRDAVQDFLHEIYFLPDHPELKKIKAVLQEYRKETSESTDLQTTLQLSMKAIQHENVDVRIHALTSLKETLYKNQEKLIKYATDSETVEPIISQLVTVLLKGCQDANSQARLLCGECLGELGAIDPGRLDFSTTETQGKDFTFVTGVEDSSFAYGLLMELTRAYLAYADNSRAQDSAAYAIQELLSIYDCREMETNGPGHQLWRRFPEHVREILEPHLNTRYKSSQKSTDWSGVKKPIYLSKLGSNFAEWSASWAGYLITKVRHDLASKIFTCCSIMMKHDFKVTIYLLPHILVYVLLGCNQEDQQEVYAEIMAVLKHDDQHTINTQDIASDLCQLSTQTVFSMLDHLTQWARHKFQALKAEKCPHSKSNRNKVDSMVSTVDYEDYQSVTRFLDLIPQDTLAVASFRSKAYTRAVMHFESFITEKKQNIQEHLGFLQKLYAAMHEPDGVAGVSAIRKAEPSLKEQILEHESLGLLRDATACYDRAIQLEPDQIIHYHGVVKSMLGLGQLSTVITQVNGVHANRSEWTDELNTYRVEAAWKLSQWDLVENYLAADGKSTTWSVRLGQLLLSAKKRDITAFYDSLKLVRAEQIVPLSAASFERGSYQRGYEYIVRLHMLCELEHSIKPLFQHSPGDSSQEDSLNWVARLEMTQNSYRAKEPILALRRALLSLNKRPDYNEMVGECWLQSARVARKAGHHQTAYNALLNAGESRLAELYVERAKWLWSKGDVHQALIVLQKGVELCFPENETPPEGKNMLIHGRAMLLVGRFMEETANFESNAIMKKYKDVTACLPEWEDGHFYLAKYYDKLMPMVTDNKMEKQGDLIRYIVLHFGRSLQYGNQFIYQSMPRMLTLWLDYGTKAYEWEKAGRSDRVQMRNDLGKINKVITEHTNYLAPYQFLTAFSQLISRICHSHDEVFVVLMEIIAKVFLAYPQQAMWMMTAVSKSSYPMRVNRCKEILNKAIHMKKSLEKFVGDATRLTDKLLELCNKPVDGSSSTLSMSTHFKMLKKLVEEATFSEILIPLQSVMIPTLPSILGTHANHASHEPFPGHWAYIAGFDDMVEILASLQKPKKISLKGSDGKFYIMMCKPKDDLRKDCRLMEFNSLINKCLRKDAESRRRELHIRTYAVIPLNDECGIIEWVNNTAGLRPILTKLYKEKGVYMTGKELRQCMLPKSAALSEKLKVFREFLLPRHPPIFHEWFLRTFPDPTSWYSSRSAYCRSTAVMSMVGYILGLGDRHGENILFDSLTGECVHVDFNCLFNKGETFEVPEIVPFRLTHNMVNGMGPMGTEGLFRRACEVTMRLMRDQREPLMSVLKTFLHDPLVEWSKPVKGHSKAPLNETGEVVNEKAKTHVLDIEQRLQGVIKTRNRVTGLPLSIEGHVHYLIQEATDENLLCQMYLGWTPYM
Chain of ATR (Q8WXE1 whole entry partner): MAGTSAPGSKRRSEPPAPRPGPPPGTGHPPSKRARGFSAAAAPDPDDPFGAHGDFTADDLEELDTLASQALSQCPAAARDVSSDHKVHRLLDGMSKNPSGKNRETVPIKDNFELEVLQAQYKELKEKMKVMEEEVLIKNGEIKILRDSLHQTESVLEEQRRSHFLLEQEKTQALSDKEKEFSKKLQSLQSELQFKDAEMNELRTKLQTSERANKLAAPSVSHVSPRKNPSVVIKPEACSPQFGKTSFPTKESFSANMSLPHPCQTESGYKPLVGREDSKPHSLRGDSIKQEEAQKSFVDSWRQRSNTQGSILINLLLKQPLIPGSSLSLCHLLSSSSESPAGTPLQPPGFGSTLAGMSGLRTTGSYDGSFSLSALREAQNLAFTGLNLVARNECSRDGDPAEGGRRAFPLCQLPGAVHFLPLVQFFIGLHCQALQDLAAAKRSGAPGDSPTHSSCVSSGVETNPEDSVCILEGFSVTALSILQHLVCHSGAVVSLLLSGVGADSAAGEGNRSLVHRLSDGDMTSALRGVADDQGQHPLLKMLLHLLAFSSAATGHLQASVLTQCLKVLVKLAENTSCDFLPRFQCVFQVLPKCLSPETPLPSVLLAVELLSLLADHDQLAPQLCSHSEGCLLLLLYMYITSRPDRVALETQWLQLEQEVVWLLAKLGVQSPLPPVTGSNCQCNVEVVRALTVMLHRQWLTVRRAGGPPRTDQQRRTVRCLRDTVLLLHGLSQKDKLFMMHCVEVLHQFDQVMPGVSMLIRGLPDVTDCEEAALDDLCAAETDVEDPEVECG

## C[C@@H]1COCCN1c1nc(-c2cccc3[nH]ccc23)nc2c1CCN(C(=O)CC#N)C2 [ZH-12, (R)-3-(2-(1H-indol-4-yl)-4-(3-methylmorpholino)-5,8-dihydropyrido[3,4-d]pyrimidin-7(6H)-yl)-3-oxopropanenitrile]
[1]; mean ± SD of two independent experiments, read-out: ATR IC50 ± SD
  IC50: 6.81 ± 0.04 nM
[1]; read-out: ATR IC50
  IC50: 6.8 nM
[2]
  IC50: 4740 ± 270 nM
[3]
  IC50: 1610 ± 80 nM
[4]
  IC50: 770 ± 130 nM
[5]
  IC50: 290 ± 10 nM
[6]
  apoptosis effect (percentage of apoptotic cells): 33.8%
[7]; 12.5 mg/kg, intraperitoneally, twice daily
  tumor growth inhibition (TGI): 27.0%
[7]; 25 mg/kg twice daily, AZD6738 orally, ZH-12 intraperitoneally
  tumor growth inhibition (TGI): 39.5%
[7]; 50 mg/kg, intraperitoneally, twice daily
  tumor growth inhibition (TGI): 53.7% and 53.8%
[7]; ZH-12 12.5, 25 and 50 mg/kg BID for 18 days, single agent
  body weight loss or toxicity: No significant body weight loss or toxicity was observed
[8]
  inhibitory activities against 207 kinases: weak or no inhibitory activities against 207 kinases
[9]
  colony formation (cell proliferation): inhibited cell proliferation dose-dependently
[10]
  cell migration, wound healing: inhibited LoVo cell migration in a dose-dependent manner
[11]
  DNA damage, comet assay: induced significant amounts of DNA damage dose-dependently
[11]; 0.5 µM
  tail intensity, comet assay: comparable tail intensity to AZD6738
[12]
  phosphorylation of ATR and CHK1, Western blot: inhibited the phosphorylation of ATR and its downstream kinase CHK1 in a dose-dependent manner
[13]
  ATR phosphorylation (p-ATR Thr1989) and CHK1 phosphorylation (p-CHK1 Ser345) in tumors: significantly inhibited ATR phosphorylation
